Where two headings read alike, the source gives them in different places.
Key:
rSmTAChE [1] = target: T1, rSmTAChE (Schistosoma mansoni, UniProt A0A3Q0KMM5); experiment: biochemical
rSmTAChE [2] = target: T1, rSmTAChE; format: biochemical; conditions: for IC50: read-out: qAC50 (IC50), rSmTAChE
[3] = target: recombinant human acetylcholinesterase, rHsAChE (Homo sapiens, UniProt P22303); experiment: biochemical
[4] = read-out: qAC50 (IC50), rHsAChE
[5] = read-out: rSmTAChE HTS Inhibition (Ave, %)
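For Inhibition (%) (Average) in this document: mostly 20 µM final but a few compounds at 5 or 10 µM.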
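For Inhibition (%) Replicate A in this document: mostly 20 µM final but a few compounds at 5 or 10 µM.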
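For Inhibition (%) Replicate B in this document: mostly 20 µM final but a few compounds at 5 or 10 µM.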

T1 sequence (A0A3Q0KMM5 27-661 limits assumed): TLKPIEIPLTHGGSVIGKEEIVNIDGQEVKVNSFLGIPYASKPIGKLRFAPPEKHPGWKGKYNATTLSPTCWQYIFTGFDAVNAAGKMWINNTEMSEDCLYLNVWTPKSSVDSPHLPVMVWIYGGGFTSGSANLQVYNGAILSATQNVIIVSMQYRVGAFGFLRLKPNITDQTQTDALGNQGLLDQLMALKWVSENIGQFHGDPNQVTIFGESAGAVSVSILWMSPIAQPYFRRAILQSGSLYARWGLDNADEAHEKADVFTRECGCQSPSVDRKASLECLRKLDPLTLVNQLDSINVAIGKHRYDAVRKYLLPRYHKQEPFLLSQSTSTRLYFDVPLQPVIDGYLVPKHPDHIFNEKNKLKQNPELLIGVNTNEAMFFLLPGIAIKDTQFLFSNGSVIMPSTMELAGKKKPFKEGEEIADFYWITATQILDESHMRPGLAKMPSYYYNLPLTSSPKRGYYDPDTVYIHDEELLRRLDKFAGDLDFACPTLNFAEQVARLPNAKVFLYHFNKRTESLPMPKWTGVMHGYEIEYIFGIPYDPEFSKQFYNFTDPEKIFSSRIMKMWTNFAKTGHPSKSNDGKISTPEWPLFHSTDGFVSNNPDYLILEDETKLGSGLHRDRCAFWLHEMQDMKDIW
Sequence of recombinant human acetylcholinesterase, rHsAChE (P22303 32-614): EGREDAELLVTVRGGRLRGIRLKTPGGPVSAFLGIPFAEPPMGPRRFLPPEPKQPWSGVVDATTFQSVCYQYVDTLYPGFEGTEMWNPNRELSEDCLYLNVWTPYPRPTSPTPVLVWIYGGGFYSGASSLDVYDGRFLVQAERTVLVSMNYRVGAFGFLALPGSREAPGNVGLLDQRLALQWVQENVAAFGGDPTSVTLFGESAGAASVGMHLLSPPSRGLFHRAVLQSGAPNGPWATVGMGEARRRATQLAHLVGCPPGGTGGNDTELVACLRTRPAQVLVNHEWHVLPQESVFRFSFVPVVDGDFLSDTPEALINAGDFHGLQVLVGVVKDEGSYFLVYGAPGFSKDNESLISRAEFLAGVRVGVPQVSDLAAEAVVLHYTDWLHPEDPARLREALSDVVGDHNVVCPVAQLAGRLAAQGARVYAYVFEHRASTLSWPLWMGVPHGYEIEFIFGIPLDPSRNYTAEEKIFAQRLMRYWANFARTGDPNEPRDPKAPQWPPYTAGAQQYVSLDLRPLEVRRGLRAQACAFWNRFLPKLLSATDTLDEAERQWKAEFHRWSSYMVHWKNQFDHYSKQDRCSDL

Q: Which “Inhibition (%) (Average)” value (rSmTAChE [1]) does the source give for `COc1ccc(C(Cl)=C(c2ccc(OC)cc2)c2ccc(OC)cc2)cc1` [BRD-K27062708-001-23-1] here?
A: 64.11%

Q: And the “Inhibition (%) Replicate A” value (rSmTAChE [1])?
A: 62.61%

Q: And the “Inhibition (%) Replicate B” value (rSmTAChE [1])?
A: 65.61%

Q: And the “Data Mode (curve class), rSmTAChE” value (rSmTAChE [2])?
A: inactive

Q: What about the “Data Mode (curve class), rHsAChE” value [3] of the same compound?
A: decreasing (weakly active)

Q: And the IC50 [3, 4]?
A: > 38 µM

Q: `O=C(NC(=O)c1c(F)cccc1F)Nc1cc(Cl)c(OC(F)(F)C(F)C(F)(F)F)cc1Cl` (centres unmarked) [Lufenuron, reference compound] was tested. Which inhibition at 20 µM (rSmTAChE [1]; [5]) did it give?
A: 92.6%

Q: And the “Data Mode (curve class), rSmTAChE” value (rSmTAChE [2])?
A: decreasing (weakly active)

Q: And the “Data Mode (curve class), rHsAChE” value [3]?
A: decreasing

Q: And the IC50 ([3]; IC50 (µM) rHsAChE)?
A: 12 µM

Q: And the IC50 ([3]; qAC50 (IC50), rHsAChE)?
A: 12 µM

Q: How did the “Inhibition (%) (Average)” value (rSmTAChE [1]) turn out when `CCCN1C[C@H](CSC)C[C@@H]2c3cccc4[nH]cc(c34)C[C@H]21` [BRD-K60770992-066-25-0] was run?
A: 71.65%

Q: And the “Inhibition (%) Replicate A” value (rSmTAChE [1])?
A: 73.49%

Q: What about the “Inhibition (%) Replicate B” value (rSmTAChE [1]) of the same compound?
A: 69.82%

Q: And the “Data Mode (curve class), rSmTAChE” value (rSmTAChE [2])?
A: decreasing (weakly active)

Q: And the IC50 (rSmTAChE [2])?
A: > 38 µM

Q: And the “Data Mode (curve class), rHsAChE” value [3]?
A: decreasing

Q: And the IC50 [3, 4]?
A: 29.7 µM

Q: For `O=C(C[C@@H]1C[C@@H]2c3cc(NC(=O)Nc4ccccc4)ccc3O[C@@H]2[C@@H](CO)O1)NC1CCCC1` [BRD-K74918080-001-01-0], which “Inhibition (%) (Average)” value (rSmTAChE [1]) is on record?
A: 91.31%

Q: What about the “Inhibition (%) Replicate A” value (rSmTAChE [1]) of the same compound?
A: 92.86%

Q: And the “Inhibition (%) Replicate B” value (rSmTAChE [1])?
A: 89.77%

Q: And the “rSmTAChE Data Mode” value (rSmTAChE [2])?
A: decreasing (weakly active)

Q: And the “rHsAChE Data Mode” value [3]?
A: inactive

Q: Which “Inhibition (%) (Average)” value (rSmTAChE [1]) does the source give for `CCc1nc(-c2cccc(C)c2)c(-c2ccnc(NC(=O)c3ccccc3)c2)s1` [BRD-K52751261-001-08-7] here?
A: 70.66%

Q: And the “Inhibition (%) Replicate A” value (rSmTAChE [1])?
A: 75.76%

Q: And the “Inhibition (%) Replicate B” value (rSmTAChE [1])?
A: 65.56%

Q: And the “Data Mode (curve class), rSmTAChE” value (rSmTAChE [2])?
A: inactive

Q: What about the “Data Mode (curve class), rHsAChE” value [3] of the same compound?
A: decreasing (weakly active)

Q: And the IC50 [3, 4]?
A: > 6.8 µM

Q: Which results are given for `CCCCCCCCCCCCCCCC[N+](C)(C)C` [BRD-K47079459-004-04-6]?
A: Inhibition (%) (Average) (rSmTAChE [1]): 64.20%; Inhibition (%) Replicate A (rSmTAChE [1]): 65.92%; Inhibition (%) Replicate B (rSmTAChE [1]): 62.47%; Data Mode (curve class), rSmTAChE (rSmTAChE [2]): decreasing; IC50 (rSmTAChE [2]): 17 µM; Data Mode (curve class), rHsAChE [3]: decreasing; IC50 [3, 4]: 10.3 µM

Q: `COC(=O)C1=C(C)NC(C)=C(C(=O)OC/C=C/c2ccccc2)C1c1cccc([N+](=O)[O-])c1` (centres unmarked) [BRD-A68083442-001-01-6] was tested. Which “Inhibition (%) (Average)” value (rSmTAChE [1]) did it give?
A: 87.10%

Q: What about the “Inhibition (%) Replicate A” value (rSmTAChE [1]) of the same compound?
A: 86.49%

Q: And the “Inhibition (%) Replicate B” value (rSmTAChE [1])?
A: 87.72%

Q: What about the “Data Mode (curve class), rSmTAChE” value (rSmTAChE [2]) of the same compound?
A: inactive

Q: What about the “Data Mode (curve class), rHsAChE” value [3] of the same compound?
A: inactive

Q: `CCOC(=O)N1c2ccc(C(F)(F)F)cc2[C@@H](N(Cc2cc(C(F)(F)F)cc(C(F)(F)F)c2)C(=O)OC)C[C@H]1CC` [BRD-K55675242-001-03-0] was tested. Which “Inhibition (%) (Average)” value (rSmTAChE [1]) did it give?
A: 71.11%

Q: What about the “Inhibition (%) Replicate A” value (rSmTAChE [1]) of the same compound?
A: 72.88%

Q: What about the “Inhibition (%) Replicate B” value (rSmTAChE [1]) of the same compound?
A: 69.34%

Q: What about the “Data Mode (curve class), rSmTAChE” value (rSmTAChE [2]) of the same compound?
A: inactive

Q: What about the “Data Mode (curve class), rHsAChE” value [3] of the same compound?
A: decreasing (weakly active)

Q: And the IC50 [3, 4]?
A: > 38 µM

Q: Which “Inhibition (%) (Average)” value (rSmTAChE [1]) does the source give for `N#C[C@H]1[C@H](c2ccc(C#CC3CC3)cc2)[C@H](CO)N1C(=O)Cc1ccccn1` [BRD-K00124439-001-01-2] here?
A: 63.26%

Q: What about the “Inhibition (%) Replicate A” value (rSmTAChE [1]) of the same compound?
A: 63.67%

Q: What about the “Inhibition (%) Replicate B” value (rSmTAChE [1]) of the same compound?
A: 62.84%

Q: What about the “rSmTAChE Data Mode” value (rSmTAChE [2]) of the same compound?
A: decreasing (weakly active)

Q: And the “rHsAChE Data Mode” value [3]?
A: inactive

Q: What does the source list for `O=C(C[C@@H]1C[C@@H]2c3cc(NC(=O)NC4CCCC4)ccc3O[C@@H]2[C@H](CO)O1)NCc1ccccc1F` [BRD-K14652476-001-01-0]?
A: Inhibition (%) (Average) (rSmTAChE [1]): 84.81%; Inhibition (%) Replicate A (rSmTAChE [1]): 85.09%; Inhibition (%) Replicate B (rSmTAChE [1]): 84.52%; rSmTAChE Data Mode (rSmTAChE [2]): inactive; rHsAChE Data Mode [3]: inactive

Q: Which “Inhibition (%) (Average)” value (rSmTAChE [1]) does the source give for `O=C(Nc1ccc(Cl)cc1)Nc1ccc(Cl)c(Cl)c1` [BRD-K25029121-001-05-8] here?
A: 85.20%

Q: What about the “Inhibition (%) Replicate A” value (rSmTAChE [1]) of the same compound?
A: 84.59%

Q: What about the “Inhibition (%) Replicate B” value (rSmTAChE [1]) of the same compound?
A: 85.82%

Q: And the “Data Mode (curve class), rSmTAChE” value (rSmTAChE [2])?
A: inactive

Q: And the “Data Mode (curve class), rHsAChE” value [3]?
A: decreasing (weakly active)

Q: What about the IC50 [3, 4] of the same compound?
A: > 38 µM

Q: Which results are given for `Cc1cc(C#N)cc(C)c1Oc1nc(Nc2ccc(C#N)cc2)nc(N)c1Br` [BRD-K74717603-001-02-2]?
A: Inhibition (%) (Average) (rSmTAChE [1]): 74.49%; Inhibition (%) Replicate A (rSmTAChE [1]): 77.10%; Inhibition (%) Replicate B (rSmTAChE [1]): 71.88%; Data Mode (curve class), rSmTAChE (rSmTAChE [2]): decreasing (weakly active); IC50 (rSmTAChE [2]): > 38 µM; Data Mode (curve class), rHsAChE [3]: inactive

Q: `Brc1cc2c(cc1[C@@H]1Nc3ccccc3[C@@H]3C=CC[C@@H]31)OCO2` [G15, reference compound] was tested. Which “Inhibition (%) Replicate A” value (rSmTAChE [1]) did it give?
A: 75.36%

Q: What about the “Inhibition (%) Replicate B” value (rSmTAChE [1]) of the same compound?
A: 80.61%

Q: And the “rSmTAChE HTS Inhibition (Ave, %)” value (rSmTAChE [1]; 20 µM)?
A: 77.99%

Q: What about the “Data Mode (curve class), rSmTAChE” value (rSmTAChE [2]) of the same compound?
A: decreasing (weakly active)

Q: And the “Data Mode (curve class), rHsAChE” value [3]?
A: decreasing (weakly active)

Q: And the “SI (Sm/Hs)” value [3]?
A: 2.81

Q: And the IC50 ([3]; read-out: IC50 (µM) rHsAChE)?
A: > 13.5 µM

Q: How did the “Inhibition (%) (Average)” value (rSmTAChE [1]) turn out when `COc1ccc(NC(=O)Nc2ccc3c(c2)[C@H]2C[C@@H](CC(=O)NCc4ccccn4)O[C@H](CO)[C@H]2O3)cc1` [BRD-K96625719-001-01-4] was run?
A: 74.63%

Q: What about the “Inhibition (%) Replicate A” value (rSmTAChE [1]) of the same compound?
A: 75.38%

Q: What about the “Inhibition (%) Replicate B” value (rSmTAChE [1]) of the same compound?
A: 73.88%

Q: And the “rSmTAChE Data Mode” value (rSmTAChE [2])?
A: decreasing (weakly active)

Q: What about the “rHsAChE Data Mode” value [3] of the same compound?
A: inactive

Q: With `CCCC[C@@H](CC)COC(=O)/C=C/c1ccc(OC)cc1` [BRD-K19972289-001-01-4] as the compound, how does the “Inhibition (%) (Average)” value (rSmTAChE [1]) read?
A: 64.81%

Q: And the “Inhibition (%) Replicate A” value (rSmTAChE [1])?
A: 66.96%

Q: And the “Inhibition (%) Replicate B” value (rSmTAChE [1])?
A: 62.66%

Q: And the “Data Mode (curve class), rSmTAChE” value (rSmTAChE [2])?
A: inactive

Q: And the “Data Mode (curve class), rHsAChE” value [3]?
A: decreasing

Q: And the IC50 [3, 4]?
A: 25.7 µM

Q: Which results are given for `CC(C)(Sc1cc(C(C)(C)C)c(O)c(C(C)(C)C)c1)Sc1cc(C(C)(C)C)c(O)c(C(C)(C)C)c1` [Probucol, reference compound]?
A: inhibition at 20 µM (rSmTAChE [1]; [5]): 93.7%; Data Mode (curve class), rSmTAChE (rSmTAChE [2]): decreasing (weakly active); SI (Sm/Hs) [3]: 5.36; IC50 ([3]; IC50 (µM) rHsAChE): 7.09 µM; Data Mode (curve class), rHsAChE ([3]; dose response analysis of Drug Repurposing Hub hits against rHsAChE): decreasing

Q: Which results are given for `COc1ccc2cc(-c3cc(-c4cc(Cl)cc(Cl)c4)nn3[C@@H](C)c3ccc(C(=O)NCCC(=O)O)cc3)ccc2c1` [MK-0893, reference compound]?
A: inhibition at 20 µM (rSmTAChE [1]; read-out: HTS/rSmTAChE Inhibition (Ave, %)): 88.7%; Data Mode (curve class), rSmTAChE (rSmTAChE [2]): decreasing; IC50 (µM) rHsAChE ([3]; Table 1, Inactive = inactive at the maximum tested concentration (40 µM)): Inactive *; inhibition of rHsAChE, result in words ([3]; dose–response, up to 40 µM): no inhibition detected

Q: What does the source list for `O=c1sn(-c2cccc3ccccc23)c(=O)n1Cc1ccccc1` [BRD-K81330143-001-04-8]?
A: Inhibition (%) (Average) (rSmTAChE [1]): 88.72%; Inhibition (%) Replicate A (rSmTAChE [1]): 89.17%; Inhibition (%) Replicate B (rSmTAChE [1]): 88.27%; Data Mode (curve class), rSmTAChE (rSmTAChE [2]): inactive; Data Mode (curve class), rHsAChE [3]: inactive

Q: How did the “Inhibition (%) (Average)” value (rSmTAChE [1]) turn out when `Cc1cc(Oc2ccc3nc(COc4ccc(CC5SC(=O)NC5=O)cc4)n(C)c3c2)cc(C)c1N` (centres unmarked) [BRD-A24560335-300-01-2] was run?
A: 64.01%

Q: What about the “Inhibition (%) Replicate A” value (rSmTAChE [1]) of the same compound?
A: 61.34%

Q: What about the “Inhibition (%) Replicate B” value (rSmTAChE [1]) of the same compound?
A: 66.67%

Q: What about the “Data Mode (curve class), rSmTAChE” value (rSmTAChE [2]) of the same compound?
A: decreasing (weakly active)

Q: And the IC50 (rSmTAChE [2])?
A: > 38 µM

Q: What about the “Data Mode (curve class), rHsAChE” value [3] of the same compound?
A: inactive

Q: With `CCC(CC)C(c1ccc(Nc2nc3ccccc3s2)cc1)n1cncn1` (centres unmarked) [BRD-A95755460-001-01-3] as the compound, how does the “Inhibition (%) (Average)” value (rSmTAChE [1]) read?
A: 71.38%

Q: And the “Inhibition (%) Replicate A” value (rSmTAChE [1])?
A: 75.72%

Q: What about the “Inhibition (%) Replicate B” value (rSmTAChE [1]) of the same compound?
A: 67.03%

Q: What about the “Data Mode (curve class), rSmTAChE” value (rSmTAChE [2]) of the same compound?
A: decreasing (weakly active)

Q: What about the IC50 (rSmTAChE [2]) of the same compound?
A: > 38 µM

Q: And the “Data Mode (curve class), rHsAChE” value [3]?
A: inactive
